Test systems include CCRF-CEM leukemia; HT29 colon; IGROV1 ovarian; OVCAR-3 ovarian; OVCAR-4 ovarian; SF-268 CNS; SNB-19 CNS; HCT-116 colon.
Holding throughout (assay): NCI tumour cell line growth inhibition, 48 h

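Where inhibition never reached the appropriate level, the endpoint shown equals the highest concentration tested. Otherwise, values were interpolated linearly from a five-concentration, 48-hour dose response in 96-well plates. TGI marks complete inhibition of growth.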 Bounds are passed on as bounds.

As to `O=C1C(=O)N(C(=O)c2ccc(Cl)c(Cl)c2)c2ccccc21`, the TGI with CCRF-CEM leukemia, in the assay with HT29 colon, in the assay with IGROV1 ovarian, with OVCAR-3 ovarian, in the assay on OVCAR-4 ovarian and with SF-268 CNS was above 100 µM in each case. Besides, the TGI with SNB-19 CNS was above 100 µM.
Consider `Cc1cc(C)nc(NS(=O)(=O)c2ccc(Nc3c4ccccc4nc4c(C(=O)Nc5ccc(S(=O)(=O)N=C(N)N)cc5)ccc(Cl)c34)cc2)n1`, for which the TGI in the assay with HCT-116 colon is 51.5 µM; in the assay on HT29 colon it was above 100 µM; in the assay with OVCAR-3 ovarian it was 37.5 µM; in the assay with OVCAR-4 ovarian, 75.4 µM; with SF-268 CNS it was 97.2 µM; in the assay with SNB-19 CNS it was 46.7 µM.
In the case of `Cn1c2c(c3ccccc31)CCN(CCCCN1CCc3c(n(C)c4ccccc34)C1=O)C2`, the TGI in the assay on CCRF-CEM leukemia, in the assay on HCT-116 colon, with HT29 colon, with IGROV1 ovarian, in the assay with OVCAR-3 ovarian and in the assay on OVCAR-4 ovarian was above 100 µM in each case. Moreover, the TGI in the assay with SF-268 CNS and in the assay on SNB-19 CNS was above 100 µM in each case.
Consider `CC(=O)O/C=C(/C=C/OC(C)=O)C(C/C=C(\C)C#CC=C(C)C)OC(C)=O` (stereo not given), for which the TGI in the assay on CCRF-CEM leukemia was above 100 µM; in the assay with HCT-116 colon, 39 µM; in the assay with HT29 colon it was above 100 µM; with IGROV1 ovarian, 95.6 µM; in the assay with OVCAR-3 ovarian, 68.6 µM; in the assay on OVCAR-4 ovarian it was above 100 µM. Moreover, the TGI with SF-268 CNS and with SNB-19 CNS was above 100 µM throughout.
For the molecule `O=C(O)CSc1n[nH]c(-c2ccc(O)cc2)n1`, the TGI in the assay with CCRF-CEM leukemia, in the assay on HCT-116 colon, with HT29 colon, with IGROV1 ovarian, with OVCAR-3 ovarian and in the assay on OVCAR-4 ovarian was above 100 µM throughout. In addition, the TGI in the assay with SF-268 CNS and in the assay on SNB-19 CNS was above 100 µM in each case.
As for `Cc1cnc2c(C)ccc([N+](=O)[O-])c2c1NCCCN(C)C`, the TGI in the assay on CCRF-CEM leukemia, in the assay with HCT-116 colon, with HT29 colon, in the assay on IGROV1 ovarian, in the assay on OVCAR-3 ovarian and with OVCAR-4 ovarian was above 100 µM in each case. The TGI in the assay with SF-268 CNS and in the assay on SNB-19 CNS was above 100 µM in each case.
In the case of `O=C(O)c1c(-c2cccc3ccccc23)sc(-c2cccc3ccccc23)c1C(=O)O`, the TGI in the assay on CCRF-CEM leukemia, in the assay with HCT-116 colon, with HT29 colon, with IGROV1 ovarian, in the assay on OVCAR-3 ovarian and in the assay with SF-268 CNS was above 100 µM in each case. Also, the TGI with SNB-19 CNS is above 100 µM.
Take `CC1=C(C(=O)Nc2ccccc2C)C(c2ccccc2)C(C(=O)Nc2ccccc2C)=C(C)N1`: the TGI with CCRF-CEM leukemia is 73.9 µM; with HCT-116 colon, above 100 µM; in the assay with HT29 colon, above 100 µM; with IGROV1 ovarian it was above 100 µM; in the assay with OVCAR-3 ovarian it was above 100 µM; with OVCAR-4 ovarian, above 100 µM. For the same molecule, the TGI with SF-268 CNS and in the assay on SNB-19 CNS was above 100 µM each time.
Regarding `COc1cc(OC)c([C@@H]2OC(=O)C3C2C(=O)O[C@H]3c2cc(OC)c(OC)cc2OC)cc1OC` (stereo not given in full), the TGI is above 100 µM in the assay with CCRF-CEM leukemia; above 100 µM with HCT-116 colon; above 100 µM in the assay on HT29 colon; above 10 µM in the assay with IGROV1 ovarian; above 100 µM in the assay with OVCAR-3 ovarian; above 100 µM with OVCAR-4 ovarian. The molecule further showed a TGI in the assay on SNB-19 CNS above 100 µM.
Take `COc1ccc2[nH]c3c(c2c1)CCN(C)CC3`: the TGI in the assay on CCRF-CEM leukemia, in the assay on HCT-116 colon, with HT29 colon, in the assay with IGROV1 ovarian, with OVCAR-3 ovarian and in the assay with OVCAR-4 ovarian was above 100 µM in each case. The TGI with SF-268 CNS and in the assay on SNB-19 CNS was above 100 µM in each case.
`COC(=O)C1CC2(CC3=C1CCCC3)OCCO2` (stereo not given): the TGI with CCRF-CEM leukemia, in the assay with HCT-116 colon, in the assay on HT29 colon, with IGROV1 ovarian, in the assay with OVCAR-3 ovarian and with OVCAR-4 ovarian was above 100 µM throughout. Further, the TGI with SF-268 CNS and with SNB-19 CNS was above 100 µM throughout.
Take `CCc1cccc(C(C)C)c1NC(=O)C(=O)C(Cc1nc2ccccc2[nH]c1=O)C(=O)OC` (stereo not given): the TGI in the assay on CCRF-CEM leukemia, in the assay with HCT-116 colon, in the assay with HT29 colon, in the assay on IGROV1 ovarian, in the assay on OVCAR-3 ovarian and in the assay on OVCAR-4 ovarian was above 100 µM each time. Moreover, the TGI in the assay with SF-268 CNS and in the assay on SNB-19 CNS was above 100 µM each time.
For `CC1OC(OCC2OC(Oc3c(-c4ccc(O)cc4)oc4cc(O)cc(O)c4c3=O)C(OC3OCC(O)(CO)C3O)C(O)C2O)C(O)C(O)C1O` (stereo not given), the TGI in the assay on CCRF-CEM leukemia, with HCT-116 colon, with HT29 colon, in the assay with IGROV1 ovarian, in the assay with OVCAR-3 ovarian and with OVCAR-4 ovarian was above 100 µM each time. Moreover, the TGI with SF-268 CNS and in the assay with SNB-19 CNS was above 100 µM throughout.
`N#CCC(=O)Nc1cccc(C(F)(F)F)c1`: the TGI with CCRF-CEM leukemia, in the assay on HCT-116 colon, in the assay on HT29 colon, with IGROV1 ovarian, in the assay on OVCAR-3 ovarian and with OVCAR-4 ovarian was above 100 µM in each case. Moreover, the TGI with SF-268 CNS and in the assay with SNB-19 CNS was above 100 µM each time.
`COc1cccc2cc(C)c(C(=O)c3ccccc3)nc12`: the TGI in the assay on CCRF-CEM leukemia, with HCT-116 colon, with IGROV1 ovarian, in the assay on OVCAR-3 ovarian, with OVCAR-4 ovarian and in the assay on SF-268 CNS was above 100 µM throughout. In the assay on SNB-19 CNS, this molecule came in with a TGI above 100 µM.
Turning to `O=C1CC(O)C=C1Nc1ccc(Cl)cc1` (stereo not given), the TGI in the assay on CCRF-CEM leukemia, in the assay with HCT-116 colon, with HT29 colon, in the assay on IGROV1 ovarian, in the assay with OVCAR-3 ovarian and with OVCAR-4 ovarian was above 100 µM throughout. The TGI in the assay with SF-268 CNS and in the assay on SNB-19 CNS was above 100 µM throughout.
For `CC(=O)C1CC(C)=CCC12C(=O)Nc1ccccc12` (stereo not given), the TGI with CCRF-CEM leukemia, in the assay on HCT-116 colon, in the assay with HT29 colon, in the assay on IGROV1 ovarian, in the assay on OVCAR-3 ovarian and in the assay with OVCAR-4 ovarian was above 100 µM each time. Also, the TGI in the assay on SF-268 CNS and in the assay on SNB-19 CNS was above 100 µM each time.

The record behind these values is PubChem BioAssay (NCI).
